Structures are written as SMILES.

This series in a line: Solubility of dichroic dye compound in cyclopentanone (absorbance method). The class given is physicochemical. The settings on record: for Solubility (evaluation grade) / Solubility (wt %): in cyclopentanone; for solubility (in words): solubility to solvent, comparison between examples. As to the method: The solubilities of the dichroic dye compounds D1 and D4 to D24 used in the examples and the comparative examples were measured as follows.
0.1 g of each dichroic dye compound was added to 2 g of cyclopentanone, and dissolved with ultrasonic waves. Then, 0.2 g of the solution portion was weighed and diluted with 45 g of cyclopentanone. The absorption spectrum of the cyclopentanone solution was measured to obtain an absorbance A (for solubility measurement).
Separately, 0.1 mg of each dichroic dye compound was completely dissolved in 100 g of cyclopentanone, and the absorption spectrum was measured to obtain an absorbance B (having a known concentration).
From data of the obtained two absorbances, the solubility was calculated by the following formula.
The evaluation standards are as follows.
A: The solubility is 2.5 mass % or greater.
B: The solubility is 1.0 mass % or greater and ess than 2.5 mass %.
C: The solubility is less than 1.0 mass %.

For `C=CC(=O)OCCCCOc1ccc(/N=N/c2ccc(/N=N/c3ccc(/N=N/c4ccc(OCCCCOC(=O)C=C)cc4)cc3C)cc2)cc1` [D1], the “Solubility (evaluation grade)” value is “A (The solubility is 2.5 mass % or greater.)”, the “Solubility (wt %)” value worked out at 4.5 wt % and the “solubility (in words)” value is given as “more excellent solubility”.
As to `CCCCc1ccc(N=Nc2ccc(N=Nc3c(C)cc(N=Nc4cc(C)c(N=Nc5ccc(N=Nc6ccc(CCCC)cc6)cc5)c(C)c4)cc3C)cc2)cc1` [D24, reference compound], the “Solubility (evaluation grade)” value was “C (The solubility is less than 1.0 mass %.)” and the “Solubility (wt %)” value is reported as below 0.1 wt %.
On to `C=CC(=O)OCCCCOc1ccc(N=Nc2ccc(N=Nc3ccc(N=Nc4ccc(N=Nc5ccc(N=Nc6ccc(OCCCCOC(=O)C=C)c(C(F)(F)F)c6)c(C)c5)cc4)c(C)c3)cc2)cc1C(F)(F)F` [D23], for which the “Solubility (evaluation grade)” value was “B (The solubility is 1.0 mass % or greater and ess than 2.5 mass %.)”; the “Solubility (wt %)” value came to 1.2 wt %.
Regarding `C=CC(=O)OCCCCOc1ccc(/N=N/c2ccc(/N=N/c3ccc(/N=N/c4ccc(OCCCCOC(=O)C=C)cc4)c4ccccc34)cc2)cc1` [D13, reference compound], the “Solubility (evaluation grade)” value was “B (The solubility is 1.0 mass % or greater and ess than 2.5 mass %.)”; the “Solubility (wt %)” value was found to be 1.5 wt %.
On to `C=CC(=O)OCCCCOc1ccc(N=Nc2ccc(N=Nc3ccc(N=Nc4ccc(OCCCCOC(=O)C=C)c(C(F)(F)F)c4)cc3)cc2)cc1` [D19], for which the “Solubility (evaluation grade)” value is “A (The solubility is 2.5 mass % or greater.)” and the “Solubility (wt %)” value is above 5 wt %.
Consider `C=CC(=O)OCCCCOc1ccc(/N=N/c2ccc(/N=N/c3ccc(/N=N/c4ccc(OCCCCOC(=O)C=C)cc4)cc3)cc2)cc1` [D12, reference compound], for which the “Solubility (evaluation grade)” value is given as “C (The solubility is less than 1.0 mass %.)”, the “Solubility (wt %)” value is 0.8 wt % and the “solubility (in words)” value is “the solubility to a solvent deteriorates”.
Take `Cc1cc(/N=N/c2ccc(OCCCCOCC3(C)COC3)cc2)ccc1/N=N/c1ccc(/N=N/c2ccc(OCCCCOCC3(C)COC3)cc2)cc1` [D11]: the “Solubility (evaluation grade)” value is given as “A (The solubility is 2.5 mass % or greater.)” and the “Solubility (wt %)” value amounted to 3.3 wt %.
As for `C=CC(=O)OCCCCOc1ccc(/N=N/c2ccc(/N=N/c3ccc(OCCCCOC(=O)C=C)cc3C)cc2)cc1` [D6], the “Solubility (evaluation grade)” value was “A (The solubility is 2.5 mass % or greater.)”, the “Solubility (wt %)” value is on record as 18 wt % and the “solubility (in words)” value was “more excellent solubility”.
Regarding `C=CC(=O)OCCCCOc1ccc(N=Nc2ccc(N=Nc3ccc(N=Nc4ccc(OCCCCOC(=O)C=C)cc4)c(C)c3)c(OC)c2)cc1` [D17], the “Solubility (evaluation grade)” value is given as “A (The solubility is 2.5 mass % or greater.)” and the “Solubility (wt %)” value was 3.2 wt %.
As to `C=CC(=O)OCCCCOc1ccc(/N=N/c2ccc(/N=N/c3ccc(/N=N/c4ccc(OCCCCOC(=O)C=C)cc4)cc3OCCOCCOCCOC)cc2)cc1` [D8], the “Solubility (evaluation grade)” value was “A (The solubility is 2.5 mass % or greater.)”, the “Solubility (wt %)” value amounted to 4.8 wt % and the “solubility (in words)” value is “more excellent solubility”.
For the molecule `C=CC(=O)OCCCCOc1ccc(/N=N/c2ccc(/N=N/c3ccc(OCCCCOC(=O)C=C)c(C)c3)cc2)cc1` [D5], the “Solubility (evaluation grade)” value is given as “A (The solubility is 2.5 mass % or greater.)” and the “Solubility (wt %)” value is on record as 6.8 wt %.
`C=CC(=O)OCCCCOc1ccc(N=Nc2ccc(N=Nc3ccc(N=Nc4ccc(N=Nc5ccc(OCCCCOC(=O)C=C)cc5)c(OC)c4)c(OC)c3)cc2)cc1` [D18]: the “Solubility (evaluation grade)” value was “B (The solubility is 1.0 mass % or greater and ess than 2.5 mass %.)”; the “Solubility (wt %)” value is 2.1 wt %.
Take `C=CC(=O)OCCOc1ccc(/N=N/c2ccc(/N=N/c3ccc(/N=N/c4ccc(OCCOC(=O)C=C)cc4)cc3C)cc2)cc1` [D9]: the “Solubility (evaluation grade)” value is recorded as “A (The solubility is 2.5 mass % or greater.)” and the “Solubility (wt %)” value stood at 4.3 wt %.
For the molecule `C=CC(=O)OCCCCOc1ccc(/N=N/c2ccc(/N=N/c3ccc(OCCCCOC(=O)C=C)c(C(F)(F)F)c3)cc2)cc1` [D7], the “Solubility (evaluation grade)” value is “A (The solubility is 2.5 mass % or greater.)”, the “Solubility (wt %)” value turned out to be 42 wt % and the “solubility (in words)” value is “more excellent solubility”.
As to `C=CC(=O)OCCCCOc1ccc(/N=N/c2ccc(/N=N/c3ccc(/N=N/c4ccc(OCCCCCCC)cc4)cc3)c(C)c2)cc1` [D10], the “Solubility (evaluation grade)” value was “A (The solubility is 2.5 mass % or greater.)” and the “Solubility (wt %)” value is 2.8 wt %.
Consider `C=CC(=O)OCCCCOc1ccc(N=Nc2ccc(N=Nc3ccc(N=Nc4ccc(N=Nc5ccc(OCCCCOC(=O)C=C)cc5)cc4)cc3)cc2)cc1` [D22, reference compound], for which the “Solubility (evaluation grade)” value is given as “C (The solubility is less than 1.0 mass %.)” and the “Solubility (wt %)” value was 0.3 wt %.
Turning to `C=CC(=O)OCCCCOc1ccc(N=Nc2ccc(N=Nc3ccc(N=Nc4ccc(OCCCCOC(=O)C=C)c(OC)c4)cc3C)cc2)cc1OC` [D15], the “Solubility (evaluation grade)” value is “A (The solubility is 2.5 mass % or greater.)” and the “Solubility (wt %)” value was 4.3 wt %.
As to `C=CC(=O)OCCCCOc1ccc(N=Nc2ccc(N=Nc3ccc(N=Nc4ccc(OCCCCOC(=O)C=C)cc4)c(OC)c3)c(OC)c2)cc1` [D14], the “Solubility (evaluation grade)” value is “A (The solubility is 2.5 mass % or greater.)” and the “Solubility (wt %)” value was 3.1 wt %.
The like results for `C=CC(=O)OCCCCOc1ccc(N=Nc2ccc(N=Nc3ccc(N=Nc4ccc(OCCCCOC(=O)C=C)cc4OCCOC)cc3C)cc2)c(OCCOC)c1` [D20] were, in that order, “A (The solubility is 2.5 mass % or greater.)” and above 5 wt %.
With `C=CC(=O)OCCCCOc1ccc(/N=N/c2ccc(/N=N/c3ccc(OCCCCOC(=O)C=C)cc3)cc2)cc1` [D4], the “Solubility (evaluation grade)” value is listed as “A (The solubility is 2.5 mass % or greater.)” and the “Solubility (wt %)” value stood at 5.7 wt %.
In the case of `C=CC(=O)OCCCCOc1ccc(N=Nc2ccc(N=Nc3ccc(N=Nc4ccc(OCCCCOC(=O)C=C)cc4O)cc3)c(C)c2)cc1` [D21], the “Solubility (evaluation grade)” value was “B (The solubility is 1.0 mass % or greater and ess than 2.5 mass %.)”; the “Solubility (wt %)” value worked out at 1.5 wt %.
As for `C=CC(=O)OCCCCOc1ccc(N=Nc2ccc(N=Nc3ccc(N=Nc4ccc(OCCCCOC(=O)C=C)cc4OC)cc3C)cc2)c(OC)c1` [D16], the “Solubility (evaluation grade)” value is listed as “A (The solubility is 2.5 mass % or greater.)”, the “Solubility (wt %)” value is 5.0 wt % and the “solubility (in words)” value is reported as “more excellent solubility”.

These data come from US20190071571A1, “COLORING COMPOSITION, DICHROIC DYE COMPOUND, LIGHT ABSORPTION ANISOTROPIC FILM, LAMINATE, AND IMAGE DISPLAY DEVICE” (FUJIFILM Corporation, priority 2016, published 2019).
